In patent EP4772500A1, “NOVEL ISOXAZOLE COMPOUND AS TM4SF5-SPECIFIC INHIBITOR AND USE THEREOF” (Seoul National University R&DB Foundation, priority 2023, dated 2025):

Key:
Assay type in all cases: cell-based, human
[1] = system: TM4SF5-expressing cells (SNU449T7); assay: 3D sphere growth/proliferation
Description: TM4SF5-non-expressing cells (SNU449Cp) and TM4SF5-expressing cells (SNU449T7) of the same number (200 cells/well or 1000 cells/well) were added per well into Costar Ultra-Low Attachment Multiple Well Plates (CORNING), and were then treated with vehicle (DMSO) or drugs at various concentrations and cultured in a cell incubator under conditions of 37°C and 5% CO2. After repeatedly treating with the same concentrations of drugs every few days at regular intervals as indicated from the date of cell culture, the proliferation of the cells (spheres) was observed and photographed using an optical microscope on the last day of observation.
The drugs treated were the positive control drug TSAHC or the ST-1-025 isoxazole compound at the given concentrations. From the time of starting culture (0 day), (FIG. 3a) in the case of 2D culture, the number of cells was measured after treating with the drug every 24 hours, or (FIG. 3b) in a 3D environment, the proliferation of cells (spheres) was observed and photographed with an optical microscope on the 5th and 7th days after a single drug treatment at the start of culture. […]

[2] = system: TM4SF5-expressing cells (SNU449T7); assay: Western blotting for signaling factors whose phosphorylation increases in a TM4SF5-expression dependent manner; details: for phosphorylation of FAK, STAT3, c-Src, S6K1, Akt, and p27: given concentrations; for phosphorylation of FAK, c-Src, STAT3, p27, S6K1, AKT, and STAT5: 5 µM, 24 hours (FIG. 9a-b)
Description: (§1) Cell extracts were obtained from cells grown to a density of 70-80% without any treatment, or from cells treated with vehicle DMSO or drugs at the given concentrations for 24 hours. For the extract of hepatocytes or liver cancer cells, a lysis buffer (150 mM NaCl, 1% NP-40, 50 mM Tris-HCl, 0.25% sodium deoxycholate, pH 7.4) including a protease inhibitor cocktail (GenDEPOT) was used. In addition, after washing animal liver tissue twice with PBS, SDS, Na3VO4, and protease inhibitor cocktails (GenDEPOT) were added to a lysis buffer [50 mM Tris-HCl, pH 7.4, 1% NP40, 0.25% sodium deoxycholate, 150 mM NaCl, 1 mM EDTA (based on 500 ml)], followed by treatment at 4°C for 15 minutes. After centrifugation at 13,000 rpm at 4°C for 30 minutes, only the supernatant was transferred to a new microcentrifuge tube. After quantification using BCA reagent (Thermo Scientific), a 4 × sample buffer [100% glycerol 4 ml, Tris-HCl, pH 6.8, 2.4 ml, SDS 0.8 g, Bromophenol blue 4 mg, betamercaptoethanol 0.4 ml, H2O 3.1 ml (based on 10 ml)] was added, followed by boiling at 100°C for 5 minutes. After performing SDS-PAGE electrophoresis with the above samples and transferring them to Nitrocellulose Membranes Protran™ nitrocellulose membranes (Whatman), pre-treatment was performed with 5% skim milk for 1 hour. After pre-treatment, primary antibodies of p-FAK(Y861) (SC-16663), p-FAK(Y577) (SC-16665), c-Src (SC-8056), STAT3 (SC-8019), p-AKT 1/2/3(S473) (SC-7985), STATS (SC-835), Laminin γ2 (SC-393225), COL1A1 (SC-28657), CCL5(RANTES) (SC-514019) CCL20(MIP-3α) (SC-517441), SIRT1 (SC-74465), ChREBP (SC-515922), SREBP1 (SC-366513), DGAT1 (SC-271934), DGAT2 (SC-293211), MICA/B (SC-137242), SLAMF7 (SC-390840), α-tublin (SC-5286), β-actin (SC-47778), FUCA (SC-365496) (the above from Santa Cruz Biotech, USA), p-FAK(Y397) (cat # 611723), FAK (cat # 610088), p27 (cat # 610242) (the above from BD Transduction, USA), p-FAK(Y925) (#3284) p-c-Src(Y416) (#2101), p-STAT3(Y705) (#9145), p70S6K1 (#9202), p-p70S6K1(T389) (#9205), p-STAT5(Y694) (#9314), ACC (#3676), FASN (#3189), CPT1A (#12252), p-ACC(S79) (#11818), HA (#3724), PD-L1 (#13684), PD-1 (#86163), p-ERK1/2(T202/Y204) (#9101s), ERK1/2 (#9102s) (the above from Cell Signaling Tech., USA), pS10p27(S10) (ab62364), human SLAMF6 (ab224201), TIGIT (ab233404), CD34 (ab81289) (the above from Abcam, UK), mouse SLAMF6 (PA5-87823), NKG2D (PA5-102038) (the above from Thermofisher, USA), α-SMA (Sigma Aldrich, A5228), CCL2 (Invitrogen, MA5-17040), and CD155(PVR) (Biolegend, 337601), HA (Biolegend, USA), Strep-HRP(horse-radish peroxidase), StrepMAB-HRP (IBA, USA), AFP (FineTest, FNab00203) were reacted at 4°C for 15 hours. The next day, secondary antibodies were reacted, and development was performed on X-ray film using ECL (Pierce, USA). Anti-TM4SF5C-ter (epitope region of RKKQDTPH^197) and anti-TM4SF5EC2 (CLMNGEWGYHFEDTAGA^130) were custom-made at a professional antibody production company (Pro-Sci, Poway, CA, USA).
Cell extracts were obtained before and after treating TM4SF5-non-expressing cells (SNU449Cp) and TM4SF5-expressing cells (SNU449T7) with ST-1-024 or ST-1-025 drugs at the given concentrations for 24 hours, and Western blotting was performed for signaling factors whose phosphorylation and activity increase in a TM4SF5-expression dependent manner.
(a) Cell extracts were obtained after treating TM4SF5-non-expressing cells (SNU449Cp) and TM4SF5-expressing cells (SNU449T7) with vehicle (DMSO), TSAHC, or isoxazole compounds ST-2-001, ST-2-002, ST-2-003, ST-2-004, ST-2-005, ST-2-006, ST-2-007, ST-2-008, ST-2-009, ST-2-010, or ST-2-011 at a dose of 5 µM (for 24 hours). Using these, Western blotting was performed for signaling factors whose phosphorylation and activity increase in a TM4SF5-expression dependent manner. […]

[3] = system: TM4SF5-non-expressing cells (SNU449Cp); assay: Western blotting for signaling factor phosphorylation in TM4SF5-non-expressing cells; details: 5 µM, 24 hours (FIG. 9a-b, blue-lined boxes)
Description: as §1
(a) Cell extracts were obtained after treating TM4SF5-non-expressing cells (SNU449Cp) and TM4SF5-expressing cells (SNU449T7) with vehicle (DMSO), ST-2-001, or an ST-2-001-based derivative drug at a concentration of 5 µM for 24 hours. (b) Cell extracts were obtained after treating SNU449Cp and SNU449T7 with DMSO, ST-2-001, ST-3-001, ST-3-006, ST-3-007, ST-3-010, or ST-3-011 at a concentration of 5 µM for 24 hours. (c) Cell extracts were obtained after treating SNU449Cp and SNU449T7 with DMSO, ST-2-001, ST-3-006, or ST-3-011 at the given concentrations for 24 hours. (a-c) Using the cell extracts obtained after the drug treatment, Western blotting was performed for signaling factors whose phosphorylation and activity increase in a TM4SF5-expression dependent manner.

[4] = system: SNU761-TM4SF5; assay: Western blotting of SLAMF7 expression, TM4SF5-expressing SNU761 cells; details: chloroquine 10 µM, 24 hours (FIG. 15d)
Description: as §1, with “Anti-TM4SF5C-ter (epitope region of RKKQDTPH^197) and anti-TM4SF5EC2 (CLMNGEWGYHFEDTAGA^130) were custom-made at a professional antibody production company (Pro-Sci, Poway, CA, USA).” left out
After 24 hours, vehicle DMSO, drug ST-1-025, or ST-5-002 was treated at the given concentrations. […] (f) After treating NK92-EV or NK92-TM4SF5 cells with DMSO or drugs ST-2-001 (1 nM), ST-3-005 (10 nM or 1 µM), ST-5-001, or ST-5-002 (100 nM or 1 µM) for 24 hours, the expression of SLAMF7 expressed on the cell surface was analyzed through immunostaining using flow cytometry. The expression level of SLAMF7 was confirmed by adding a SLAMF7 antibody to bind with SLAMF7 and then measuring the fluorescence linked to the SLAMF7 antibody using flow cytometry. […]

[5] = 0.5 or 2.5 µM, observed 6th or 10th day (FIG. 10a, b)

Row | SMILES | phosphorylation of some signaling factors [3] | degree of three-dimensional cell proliferation [1, 5] | phosphorylation of FAK, c-Src, STAT3, p27, S6K1, AKT, and STAT5 [2] | other results
1 | Cc1ccc(S(=O)(=O)Nc2ccc(-c3cc(-c4ccc(O)cc4)no3)cc2)cc1 [ST-4-005, N-(4-(3-(4-hydroxyphenyl)isoxazole-5-yl)phenyl)-4-methylbenzenesulfonamide] | – | – | – | survival/proliferation of the spheres ([1]; given concentrations on the 0, 3, 6, and 9th days, observed 10th day (FIG. 12b-c)): inhibited; phosphorylation of FAK, STAT3, c-Src, S6K1, Akt, and p27 ([2]; 24 hours (FIG. 12a)): inhibited in many cases including STAT3, S6K1, and FAK; phosphorylation of FAK, STAT3, c-Src, S6K1, Akt, and p27 ([2]; 24 hours (FIG. 12d)): inhibited
2 | CC(=O)Nc1ccc(-c2cc(-c3ccc(C(C)(C)C)cc3)on2)cc1 [ST-3-007, N-(4-(5-(4-(tert-butyl)phenyl)isoxazole-3-yl)phenyl)acetamide] | increased | inhibited | decreased | –
3 | C=CC(=O)Nc1ccc(-c2cc(-c3ccc(OC)cc3)on2)cc1 [ST-3-010, N-(4-(5-(4-methoxyphenyl)isoxazole-3-yl)phenyl)acrylamide] | increased | inhibited | decreased | degree of three-dimensional cell proliferation ([1]; 0.1 or 1.0 µM, observed 10th day (FIG. 10c)): decreased; cell proliferation inhibitory effect ([1]; 0.5 or 2.5 µM (FIG. 10a, b), comparison among drugs): strong
4 | CCN(CC)CCCC(C)Nc1ccnc2cc(Cl)ccc12 (stereo not drawn) [CQ, chloroquine, reference compound] | – | – | – | reduction in SLAMF7 expression [4]: not clearly seen
